From patent publication US7795381B2, “Methods and materials for cancer treatment” (Mayo Foundation for Medical Education and Research, priority 2001, dated 2010) come the findings set out here.

“Also recorded” adds a separate entry of the source. No end group written: not given here.

Holding throughout (assay type): cell-based, human
Data set [1] has as its system CD4+ T cells (HTL lines). The data set can be described thus: T-cell proliferative response to polypeptide, dose curve ([3H]-thymidine). Particulars: for polypeptide concentration required to obtain 50% of the maximal proliferation: HLA-DR7-restricted HTL lines, polypeptide presented by autologous PBMC. The protocol:
Polypeptides gp10074-89, gp100175-189 and gp100576-590 were tested for their capacity to stimulate CD4^+ T cells obtained from four healthy, MHC-typed individuals in primary in vitro cultures using polypeptide-pulsed autologous dendritic cells (DC). The method used to generate tumor antigen-reactive HTL lines and clones using polypeptide-stimulated peripheral blood mononuclear cells (PBMC) was recently described in detail (Kobayashi H et al., Cancer Res 60:5228 (2000)). Briefly, DC were generated in tissue culture from adherent monocytes that were cultured for 7 days in the presence of GM-CSF and IL-4. A total of (1×10^4) polypeptide-pulsed DC (10 μg/ml for 2 hr) were irradiated (4,200 rad) and co-cultured with 3×10^4 autologous purified CD4^+ T cells (using magnetic microbeads from Miltenyi Biotech) in each well of a 96-round bottom well culture plate. Seven days later, the cultures were restimulated with polypeptide-pulsed irradiated autologous PBMC and two days later, human rIL-2 was added at a final concentration of 10 IU/ml. After 7 days, the microcultures were tested for their proliferative responses to polypeptide as described below. Those micro-wells showing a proliferative response to polypeptide (at least 2.5 fold over background) were expanded in 24 or 48-well plates by weekly restimulation with polypeptides and irradiated autologous PBMC. In some instances T-cell lines were cloned by limiting dilution and used for further studies. […]
T cells (3×10^4/well) were mixed with irradiated APC in the presence of various concentrations of antigen (polypeptides, tumors or tumor lysates), in 96-well culture plates. […] The radioactivity incorporated into DNA, which correlates with cell proliferation, was measured in a liquid scintillation counter after harvesting the cell cultures onto glass fiber filters. […] The stimulation index (SI) was calculated by dividing the mean radioactivity (cpm) obtained in the presence of antigen by the mean radioactivity (cpm) obtained in the absence of antigen but in the presence of APC.

The subject of data set [2] is CD4+ T cells (HTL lines). The data set can be described thus: MHC restriction analysis of HTL proliferative response (anti-HLA-DR/-DQ blocking, HLA-transfected L-cells, LCL). Particulars: for ability to trigger HTL restricted by other alleles such as HLA-DR1 or -DR4: 2 experiments with cells from 2 donors; for MHC restriction of the induced CD4+ T-cell (HTL) proliferative response: anti-DR/anti-DQ antibody blocking, HLA-transfected L-cells, allogeneic LCL. The protocol:
Polypeptides gp10074-89, gp100175-189 and gp100576-590 were tested for their capacity to stimulate CD4^+ T cells obtained from four healthy, MHC-typed individuals in primary in vitro cultures using polypeptide-pulsed autologous dendritic cells (DC). The method used to generate tumor antigen-reactive HTL lines and clones using polypeptide-stimulated peripheral blood mononuclear cells (PBMC) was recently described in detail (Kobayashi H et al., Cancer Res 60:5228 (2000)). Briefly, DC were generated in tissue culture from adherent monocytes that were cultured for 7 days in the presence of GM-CSF and IL-4. A total of (1×10^4) polypeptide-pulsed DC (10 μg/ml for 2 hr) were irradiated (4,200 rad) and co-cultured with 3×10^4 autologous purified CD4^+ T cells (using magnetic microbeads from Miltenyi Biotech) in each well of a 96-round bottom well culture plate. Seven days later, the cultures were restimulated with polypeptide-pulsed irradiated autologous PBMC and two days later, human rIL-2 was added at a final concentration of 10 IU/ml. After 7 days, the microcultures were tested for their proliferative responses to polypeptide as described below. Those micro-wells showing a proliferative response to polypeptide (at least 2.5 fold over background) were expanded in 24 or 48-well plates by weekly restimulation with polypeptides and irradiated autologous PBMC. In some instances T-cell lines were cloned by limiting dilution and used for further studies. Culture medium for all procedures consisted of RPMI-1640 supplemented with 5% human male AB serum, 0.1 mM MEM nonessential amino acids, 1 mM sodium pyruvate, 2 mM L-glutamine, and 50 μg/ml gentamicin.
T cells (3×10^4/well) were mixed with irradiated APC in the presence of various concentrations of antigen (polypeptides, tumors or tumor lysates), in 96-well culture plates. APC consisted of either PBMC (1×10^5/well), HLA-DR-expressing L-cells (3×10^4/well), EBV-LCL or melanoma tumor cells (3×10^4/well), pretreated with IFN-γ (500 U/ml for 48 h) to enhance MHC expression. Proliferation assays were incubated at 37° C. in a 5% CO2 incubator for 72 h and during the last 16 h, each well was pulsed with 0.5 μCi/well of [^3H]-thymidine (Amersham Pharmacia Biotech, Piscataway, N.J.). […] The radioactivity incorporated into DNA, which correlates with cell proliferation, was measured in a liquid scintillation counter after harvesting the cell cultures onto glass fiber filters. […] The stimulation index (SI) was calculated by dividing the mean radioactivity (cpm) obtained in the presence of antigen by the mean radioactivity (cpm) obtained in the absence of antigen but in the presence of APC.

Data set [3] has as its system melanoma tumor cells or tumor lysates presented by APC. The data set can be described thus: Recognition of naturally processed antigen by polypeptide-reactive HTL (proliferation, GM-CSF/IFN-γ ELISA). The note with it: for HTL recognition of melanoma tumor cell lysates presented by autologous APC / HTL recognition of antigen presented directly by intact melanoma cells: HLA-DR7-restricted HTL lines; for HTL recognition of melanoma tumor cell lysates presented by autologous APC: 697 mel lysate; for HTL recognition of antigen presented directly by intact melanoma cells: HLA-DR7+ melanoma (HT-144); for recognition of naturally processed antigen by HTL reactive to the polypeptide: MHC class II positive melanomas or APC fed with tumor lysates. The source says: Recognition of naturally processed antigen by polypeptide-reactive T-cells can be an important parameter to determine whether a predicted T-cell epitope can be used to elicit an immune response against tumor cells. HTL may recognize polypeptide/MHC class II complexes directly on tumor cells that are MHC class II positive and as a consequence the T-cells will become activated and produce cytokines that provide help to CTL or cytokines that may inhibit tumor cell growth.
T cells (3×10^4/well) were mixed with irradiated APC in the presence of various concentrations of antigen (polypeptides, tumors or tumor lysates), in 96-well culture plates. APC consisted of either PBMC (1×10^5/well), HLA-DR-expressing L-cells (3×10^4/well), EBV-LCL or melanoma tumor cells (3×10^4/well), pretreated with IFN-γ (500 U/ml for 48 h) to enhance MHC expression. Proliferation assays were incubated at 37° C. in a 5% CO2 incubator for 72 h and during the last 16 h, each well was pulsed with 0.5 μCi/well of [^3H]-thymidine (Amersham Pharmacia Biotech, Piscataway, N.J.). In some cases, culture supernatants were collected before the addition of [^3H]-thymidine for the determination of lymphokine production using ELISA kits (Pharmingen, San Diego, Calif.). The radioactivity incorporated into DNA, which correlates with cell proliferation, was measured in a liquid scintillation counter after harvesting the cell cultures onto glass fiber filters. […] The stimulation index (SI) was calculated by dividing the mean radioactivity (cpm) obtained in the presence of antigen by the mean radioactivity (cpm) obtained in the absence of antigen but in the presence of APC.

For data set [4], the system named is melanoma cells. Description: Antigen-specific cytotoxicity, JAM assay. The note with it: HLA-DQw6-restricted HTL; DQw6 positive melanoma cell line (1102 mel). Here is the method: The capacity of HTL lines and clones to kill tumor cells expressing the appropriate polypeptide/MHC complexes was evaluated using the JAM assay (Matzinger P, J Immunol Methods 145:185 (1991)), which measures the DNA retained by target living cells after incubation with effector T-cells. Briefly, target cells were labeled with of [^3H]-thymidine for 18 hrs in tissue culture. After washing and counting the cells, they were incubated at various effectors to target ratio in 96-well round-bottomed plates for 36 hours. The cultures were then harvested onto glass fiber filters, and the amount of radioactivity retained in DNA is measured in a scintillation counter. The percent cytotoxicity was calculated by the ratio of cpm obtained in the absence of T-cells over the cpm obtained in the presence of different amounts of T-cells X 100. All determinations were done in triplicates.

Data set [5] relates to PBMC from normal individuals. Description: In vitro immunization of PBMC using polypeptide-pulsed DC (CTL induction). The source says: See, Manici et al., J Exp Med 189:871 (1999); Fujita et al., Eur J Immunol 28:305 (1998); Zarour et al., Cancer Res 60:4946 (2000); Touloukian et al., J Immunol 164:3535 (2000); Zarour et al., Proc Natl Acad Sci USA 97:400 (2000); Yasukawa et al., Blood 92:3355 (1998).

Consider GPTLIGANASFSIALN [gp10074-89], for which the “polypeptide concentration required to obtain 50% of the maximal proliferation” value in data set [1] was about 0.6 µg/mL. In data set [2], the “ability to trigger HTL restricted by other alleles such as HLA-DR1 or -DR4” value was “not able to trigger” and the “MHC restriction of the induced CD4+ T-cell (HTL) proliferative response” value was “restricted by the HLA-DR7 allele”. In data set [3], the “HTL recognition of melanoma tumor cell lysates presented by autologous APC” value is reported as “efficient at recognizing tumor cell lysates”, the “HTL recognition of antigen presented directly by intact melanoma cells” value is “effective in recognizing antigen” and the “recognition of naturally processed antigen by HTL reactive to the polypeptide” value is listed as “can recognize naturally processed antigen; also recorded: capable of recognizing naturally processed antigen”.
“GRAMLGTHTMEVTVY [gp100175-189, GRAMLGTHTMEVTVY]”: the “cytotoxicity of polypeptide-reactive HTL” value in data set [4] is reported as “high levels of cytotoxicity”.
Turning to SLAVVSTQLIMPGQE [gp100576-590], the “polypeptide concentration required to obtain 50% of the maximal proliferation” value in data set [1] is about 0.04 µg/mL. In addition, in data set [1] (by amount of polypeptide required to achieve 50% of maximal proliferative response), the “affinity of T-cell response, higher than the response to polypeptide gp10074-89” value was about 15 fold. Besides, in data set [2], the “ability to trigger HTL restricted by other alleles such as HLA-DR1 or -DR4” value is reported as “not able to trigger” and the “MHC restriction of the induced CD4+ T-cell (HTL) proliferative response” value is “restricted by the HLA-DR7 allele”. Also, in data set [3], the “HTL recognition of melanoma tumor cell lysates presented by autologous APC” value is on record as “could not be detected”, the “HTL recognition of antigen presented directly by intact melanoma cells” value was “could not be detected” and the “recognition of naturally processed antigen by HTL reactive to the polypeptide” value is “did not proliferate or produce lymphokines”.
On to “gp100177-186: potent HLA-A2-restricted CTL epitope included in polypeptide gp100175-189 (AMLGTHTMEV; UniProt P40967 177-186, looked up, fragment)”, for which the “induction of anti-tumor CTL responses” value in data set [5] is reported as “very effective in inducing anti-tumor CTL responses”.
